Assay results taken from patent US4686220A, “Substituted 2-[b-substituted-amino)-ethylamino]-1,4-naphthalenediones for treating asthma, allergic diseases and inflammation in warm-blooded animals” (American Cyanamid Company, priority 1985, dated 1987).
Structures can show the parent of a compound that is named as a salt. Where two headings read alike, the source gives them in different places.

Key:
[1] = tested on: Immunologically Stimulated Human Basophils; test: Inhibition of Histamine Release from Immunologically Stimulated Human Basophils; format: cell-based; conditions: anti-IgE or antigen stimulated, 60 min, 37° C., read-out: ED50 (concentration which causes 50% inhibition of histamine release)
Experimental: The novel compounds of this invention have been tested by the procedure of Lichtenstein, L. M. and Osler, A. G., J. Exp. Med., 120, 507-530 (1964), which evaluates the ability of compounds to inhibit mediator (histamine) release from immunologically stimulated human basophils. 10X Concentrated Tris Buffer Dissolve 140.3 g of sodium chloride, 7.45 g of potassium chloride and 74.5 g of Trizma-Tris Pre-Set, Reagent Grade, pH 7.6, at 25° C. (Sigma Chemical Co.) in sufficient water to give a final volume of 2 liters. Human Albumin (Sigma Chemical Co.) (30 mg/ml) Calcium and Magnesium Stocks Made to 0.075M and 0.5M respectively, with calcium chloride dihydrate and magnesium chloride hexahydrate. Tris-A Buffer A 10 ml portion of 10X Tris Buffer and 1.0 ml of human albumin are diluted to 100 ml with water. Tris ACM Buffer A 10 ml portion of 10X Tris Buffer, 1.0 ml of human albumin, 0.8 ml of calcium stock and 0.2 ml of magnesium stock are diluted to 100 ml with water. Rabbit Antihuman IgE Behring Diagnostics (Generally used at 10 μg protein/ml final concentration.) House Dust Mite Extract (Dermatophagoides Farinae) Strength 1:100 (w:v) allergenic extract, Hollister-Stier Labs. Generally this is diluted 1:1000 to 1:10,000 (considering the vial as stock). Other Allergens Intradermal solutions or intramuscular preparations for hyposensitization, Hollister-Stier Labs. The final concentration used is on the order of 1 PNU/ml. Separation of Leukocytes from Human Blood and Challenge Eighty milliliters of blood is withdrawn from subjects with known histamine release to anti-IgE, ragweed antigen or other specific allergen, using four 20 ml heparinized tubes. This 80 ml of blood is mixed with 20 ml of saline containing 0.6 g of dextrose and 1.2 g of dextran. The blood is allowed to sediment at room temperature in two 50 ml polycarbonate centrifuge tubes until a sharp interface develops between the red cells and plasma (60-90 minutes). The plasma (top) layer from each tube is withdrawn by pipet and transferred to respective 50 ml polycarbonate tubes. The plasma is centrifuged for 8 minutes at 110×G at 4° C. The supernatant is carefully poured off as completely as possible and the cell button is resuspended in 2-3 ml of Tris-A buffer using a siliconized Pasteur pipet. The resuspension is accomplished by drawing the liquid gently in an out of the pipet, with the tip below the liquid, until an even suspension of cells is obtained. Sufficient Tris-A buffer is then added to bring the volume in the tube to about 45 ml and the tube is centrifuged at 110×G for 8 minutes at 4° C. The supernatant is poured off and the cell button is resuspended and centrifuged as described above. The supernatant is poured off and the cell button suspended in 2-3 ml of Tris-ACM buffer to make the final volume sufficient to allow addition to the reaction tubes. Reaction tubes containing anti-IgE or antigens, either alone or with test compound in a total volume of 0.2 ml are prepared and placed in a 37° C. bath. The cells are warmed to 37° C. and frequently swirled to ensure an even suspension, while 1.0 ml aliquots are added to each reaction tube. The tubes are then incubated for 60 minutes at 37° C., vortexing the tubes gently every 15 minutes to keep the cells evenly suspended. When the reaction is complete, the tubes are centrifuged at 4° C. for 10 minutes at 1500 rpm to sediment the cells. One ml aliquots of supernatant are transferred to 12 mm by 75 mm polyethylene tubes and 0.2 ml of 8% perchloric acid is added to each tube. Blanks and totals are included in each test. The blanks have cells and all reagents except antigen or anti-IgE. The totals contain 0.24 ml of 8% perchloric acid, one ml of cells and 0.2 ml of buffer. All samples are then centrifuged to remove the precipitate protein. Assay of Released Histamine by the Automated Fluorometric Method This automated method has been described by Siraganian, R. P., in Anal. Biochem., 57, 383 (1974) and J. Immunol. […]

[2] = target: T1, Neutrophil Lipoxygenase (Cavia porcellus, UniProt A0A286X958); test: Inhibition of Neutrophil Lipoxygenase from Immunologically Stimulated Guinea Pig Neutrophiles (LTB4 and 5-HETE); format: cell-based; conditions: 10 μg/ml, 100 μM arachidonic acid and 20 μM A23187, the lower the percentage, the more active
T1 construct: endogenous in cells; host or cells: guinea pig peritoneal neutrophils
T1 sequence (A0A286X958 1-674): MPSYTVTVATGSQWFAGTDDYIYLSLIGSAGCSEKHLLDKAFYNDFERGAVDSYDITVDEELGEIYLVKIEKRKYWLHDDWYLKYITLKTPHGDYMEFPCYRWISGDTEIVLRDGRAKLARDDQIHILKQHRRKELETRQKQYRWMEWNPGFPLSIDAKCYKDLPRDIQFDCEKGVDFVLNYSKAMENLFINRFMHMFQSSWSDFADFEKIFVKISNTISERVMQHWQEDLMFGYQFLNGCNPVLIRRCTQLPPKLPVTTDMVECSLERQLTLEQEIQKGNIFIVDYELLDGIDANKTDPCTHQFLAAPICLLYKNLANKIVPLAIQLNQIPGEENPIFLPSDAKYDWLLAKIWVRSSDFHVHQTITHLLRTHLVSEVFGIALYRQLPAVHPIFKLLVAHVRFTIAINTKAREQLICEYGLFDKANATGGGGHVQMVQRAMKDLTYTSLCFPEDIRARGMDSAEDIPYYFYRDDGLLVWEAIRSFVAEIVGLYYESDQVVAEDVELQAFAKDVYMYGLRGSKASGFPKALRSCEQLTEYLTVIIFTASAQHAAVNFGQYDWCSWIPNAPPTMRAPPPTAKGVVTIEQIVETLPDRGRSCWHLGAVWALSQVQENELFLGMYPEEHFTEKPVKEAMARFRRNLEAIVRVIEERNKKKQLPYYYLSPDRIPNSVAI
Experimental: In this assay 3×10^7 peritoneal neutrophils derived from guinea pigs were incubated at 37° C. in Dulbeccos buffer containing 50 mM tris buffer (pH 7.4). Five minutes before the addition of 100 μM arachidonic acid and 20 μM calcium ionophore (A23187), control vehicle or the test compounds were added to the neutrophils at a concentration of 10 μg/ml. Three minutes after the addition of arachidonic acid and calcium ionophore the total lipid was partitioned into chloroform after adjusting the pH to 3 with citric acid and the addition of equal parts of methanol and chloroform. The 5-HETE and LTB4 were resolved by HPLC using a 5 μM, 4×25 cm octadecyl silica column (IBM Instruments) with 70-80% methanol in water adjusted to pH 3.0 with acetic acid. As the mobile phase was pumped at 1.0 ml/minute, LTB4 and 5-HETE were detected by absorbance at 270 and 236 nm, respectively. LTB4 and 5-HETE were quantitated by comparison with the control and the results were expressed as a percent of control.

Row | Compound | 5-HETE, % of Control [2] | LTB4, % of Control [2] | IC50 ([1]; Homo sapiens, 1 h) | remaining activity at 10 µg/mL ([2]; read-out: 5-HETE, % of Control) | remaining activity at 10 µg/mL ([2]; read-out: LTB4, % of Control) | other results
1 | CCOC(=O)N1CCN(C2=C(Cl)C(=O)c3ccccc3C2=O)CC1 [Example 1, 4-(3-Chloro-1,4-dioxo-2-naphthyl)-1-piperazinecarboxylic acid, ethyl ester] | 0 % of Control | 0 % of Control | – | – | – | IC50 ([1]; ethyl ester): 5.5 µM
2 | CN(CCN(C)C1=C(Cl)C(=O)c2ccccc2C1=O)Cc1ccccc1 [Example 2, 2-Chloro-3-[methyl[2-[methyl(phenylmethyl)amino]ethyl]amino]-1,4-naphthalenedione, hydrochloride] | – | – | 4 µM | – | – | –
3 | O=C1C(Cl)=C(N2CCN(Cc3ccccc3)CC2)C(=O)c2ccccc21 [Example 5, 2-chloro-3-[4-(phenylmethyl)-1-piperazinyl]-1,4-naphthalenedione] | 0 % of Control | 0 % of Control | 10.4 µM | – | – | –
4 | O=C1C(Cl)=C(N2CCN(CC(=O)N3CCOCC3)CC2)C(=O)c2ccccc21 [Example 6, 4-[[4-(3-chloro-1,4-dihydro-1,4-dioxo-2-naphthalenyl)-1-piperazinyl]acetyl]morpholine] | – | – | 20.6 µM | – | – | –
5 | O=C1C(Cl)=C(N2CCN(CC(=O)N3CCCC3)CC2)C(=O)c2ccccc21 [Example 7, 1-[[4-(3-chloro-1,4-dihydro-1,4-dioxo-2-naphthalenyl)-1-piperazinyl]acetyl]pyrrolidine] | – | – | 14.9 µM | – | – | –
6 | O=C1C(Cl)=C(N2CCN(c3ccccn3)CC2)C(=O)c2ccccc21 [Example 8, 2-chloro-3-[4-(2-pyridinyl)-1-piperazinyl]-1,4-naphthalenedione, hydrochloride] | – | – | 4.6 µM | 1.3% | 6.1% | –
7 | CN(CCNCc1nc2ccccc2s1)C1=C(Cl)C(=O)c2ccccc2C1=O [Example 9, 2-[[2-(2-benzothiazolylmethylamino)ethyl]methylamino]-3-chloro-1,4-naphthalenedione] | – | – | 6.4 µM | 0.2% | 0% | –
8 | CC1CN(C2=C(Cl)C(=O)c3ccccc3C2=O)CCN1 (centres unmarked) [Example 14, 2-chloro-3-(3-methyl-1-piperazinyl)-1,4-naphthalenedione] | – | – | 3 µM | – | – | –
9 | Cl.O=C1C(Cl)=C(N2CCN(Cc3ccccc3)CC2)C(=O)c2ccccc21 [Example 15, 2-chloro-3-[4-(phenylmethyl)-1-piperazinyl]-1,4-naphthalenedione, hydrochloride] | 35.6 % of Control | 28.3 % of Control | – | – | – | IC50 ([1]; hydrochloride): 13.4 µM
10 | CCOC(=O)N1CCN(C2=C(Cl)C(=O)c3ccccc3C2=O)CC1.Cl [Example 16, 4-(3-chloro-1,4-dihydro-1,4-dioxo-2-naphthalenyl)-1-piperazinecarboxylic acid, ethyl ester, hydrochloride] | 6.9 % of Control | 9.3 % of Control | – | – | – | IC50 ([1]; e, hydrochloride): 1.5 µM
11 | O=C1C(Cl)=C(N2CCN(c3nc4ccccc4s3)CC2)C(=O)c2ccccc21 [Example 17, 2-[4-(2-benzothiazolyl)-1-piperazinyl]-3-chloro-1,4-naphthalenedione, hydrochloride] | – | – | 5.4 µM | 23.1% | 32.6% | –
12 | CC(C)COC(=O)N1CCN(C2=C(Cl)C(=O)c3ccccc3C2=O)CC1 [Example 33, 4-(3-Chloro-1,4-dihydro-1,4-dioxo-2-naphthalenyl)-1-piperazinecarboxylic acid, 2-methylpropyl ester] | – | – | 16.5 µM | 31.6% | 27.4% | –
13 | O=C1C(Cl)=C(N2CCN(C(=O)c3ccccc3Cl)CC2)C(=O)c2ccccc21 [Example 34, 1-(2-chlorobenzoyl)-4-(3-chloro-1,4-dihydro-1,4-dioxo-2-naphthalenyl)piperazine] | – | – | 1.8 µM | – | – | –
